The subject of assay [1] is HCV genotype 1a replicon cell line (APC89; Huh7.5 cell background). Kind of assay: HCV Genotype 1a Replicon Assay (NS3-specific protease activity readout). The assay is classed as cell-based. The settings on record: Hepatitis C virus. Here is the method: Assay 2: HCV Genotype 1a Replicon Assay
The HCV genotype 1a replicon cell line was obtained from Apath LLC (APC89; Huh7.5 cell background). This subgenomic replicon contains the N-terminus of the HCV core protein fused to the neomycin-resistance selectable marker. The EMCV IRES lies downstream and drives expression of the non-structural proteins NS3-NS5B. Compound potencies were determined using the NS3-specific protease activity in lysates as a measurement of compound inhibition of replicon levels.
(§1) Cells were grown at 37° C. in a 5% CO2 humidified incubator in DMEM (Invitrogen) with 10% FBS (HyClone), 1×NEAA (Invitrogen), 1× Pen-Strep (Invitrogen), and 850 μg/mL G418 (Invitrogen). On day 1 of the assay, cells were plated at 15,000 cells/well in black 96-well tissue culture plates (Costar) in 200 μL media lacking G418. Four hours later, once the cells had adhered, the media was removed and replaced with media (no G418) containing dose-responses of test compounds. Compounds were initially diluted in DMSO and then diluted another 200× in media to bring the final DMSO concentration down to 0.5%. The cells were incubated with test compounds for 48 or 72 hours. At the end of the incubation period, media and compound were removed from the plates.
To determine the NS3-specific protease activity in lysates, the cells were lysed at room temperature in 50 μL/well of 50 mM Hepes pH 7.5, 150 mM NaCl, 15% Glycerol, 0.15% Triton X-100, 10 mM DTT for 20 minutes with shaking. 50 μL of an NS3/4a protease-specific FRET substrate (Anaspec RET S1 Cat#22991) was then added to the wells at a final concentration of 15 μM. The plates were incubated at 37° C. for 20 minutes, which corresponds to a timepoint at which the protease activity is still in the linear phase. Protease activity was determined by measuring fluorescence (Excitation: 340 nm; Emission: 509 nm).
To analyze the data, the fluorescence was plotted vs. the compound concentration, and EC50 values were determined from a 4-parameter robust fit model using GraphPad Prism software.
Background: Replicon systems follow genome replication, usually without infectious particles.

Assay [2] deals with HCV genotype 1b replicon cell line (APC144; Huh7 cell background). Kind of assay: HCV Genotype 1b Replicon Assay (Renilla luciferase readout). It is filed as cell-based. The settings on record: Hepatitis C virus, Huh-7; read-out: Genotype 1b (pEC50 class, HCV genotype 1b replicon assay) (converted).
Source text: Assay 1: HCV Genotype 1b Replicon Assay
The HCV genotype 1b replicon cell line was obtained from Apath LLC (Brooklyn, N.Y.) (APC144; Huh7 cell background). This subgenomic replicon contains the N-terminus of the HCV core protein fused to the neomycin-resistance selectable marker. The EMCV IRES lies downstream and drives expression of humanized Renilla luciferase fused to the non-structural proteins NS3-NS5B. This cell line was used to determine compound potency using the luciferase activity readout as a measurement of compound inhibition of replicon levels.
as §1, with “500” for “850”, “10,000” for “15,000”, “white” for “black”, “have” for “had”, “48” for “48 or 72”, “plates and the luciferase activity was determined using Promega Renilla-Glo reagents.” for “plates.”
To analyze the data, the luciferase activity was plotted vs. the compound concentration, and EC50 values were determined from a 4-parameter robust fit model with the GraphPad Prism software package (GraphPad Software, Inc., San Diego, Calif.). Results are expressed as the negative decadic logarithm of the EC50 value, pEC50.
Test compounds having a higher pEC50 value in this assay show greater inhibition of HCV genotype 1b replication.

[3] abbreviates: 72 hour incubation, read-out: Genotype 1a (pEC50 class, HCV genotype 1a replicon assay) (converted).
The mark [4] stands for this setting: compounds incubated for 48 hours, read-out: Genotype 1a (pEC50 class, HCV genotype 1a replicon assay), * results (converted).

Read-outs that look alike come from different tables or passages of the source. Some results are limits rather than exact numbers.

Regarding `COC(=O)N[C@H](C(=O)N1CCC[C@H]1c1nc(-c2ccc(-c3cc(Cl)c(NC(=O)c4ccc(N5C[C@H](C)N(C(=O)c6c[nH]cn6)C[C@H]5C)nc4)cc3C(F)(F)F)cc2)c[nH]1)C(C)C` [Example 65], the EC50 in assay [1] (setting [3]) and in assay [2] was less than 100 pM each time.
Take `COC(=O)N[C@H](C(=O)N1CCC[C@H]1c1nc(-c2ccc(-c3ccc(NC(=O)c4ccc(N5C[C@H](C)N(C(=O)c6c[nH]cn6)C[C@H]5C)nc4)cc3OC(F)(F)F)cc2)c[nH]1)C(C)C` [Example 32]: the EC50 in assay [1] (setting [3]) and in assay [2] was less than 100 pM each time.
Take `COC(=O)N[C@H](C(=O)N1CCC[C@H]1c1nc(-c2ccc(-c3cc(F)c(NC(=O)c4ccc(N5CCN(C(=O)Cn6cccn6)C[C@H]5C)nc4)cc3OC(F)(F)F)cc2)c[nH]1)C(C)C` [Example 27-36]: the EC50 in assay [1] (setting [3]) and in assay [2] was less than 100 pM each time.
For the molecule `CNC(=O)N1CCN(c2ccc(C(=O)Nc3ccc(-c4ccc(-c5c[nH]c([C@@H]6CCCN6C(=O)[C@@H](NC(=O)OC)C(C)C)n5)cc4)c(F)c3)cn2)[C@H](C)C1` [Example 47], the EC50 in assay [1] (setting [3]) is 100 to 1000 pM; in assay [2] it was less than 100 pM.
With `CNC(=O)N1CCN(c2ccc(C(=O)Nc3ccc(-c4ccc(-c5nc([C@@H]6CCCN6C(=O)[C@@H](NC(=O)OC)C(C)C)[nH]c5Cl)cc4)cc3)cc2)CC1` [Example 11, {(S)-1-[(S)-2-(5-Chloro-4-{4′-[4-(4-methylcarbamoyl-piperazin-1-yl)-benzoylamino]-biphenyl-4-yl}-1H-imidazol-2-yl)-pyrrolidine-1-carbonyl]-2-methyl-propyl}-carbamic acid methyl ester], the EC50 in assay [1] (setting [4]) is 100 to 1000 pM; in assay [2], less than 100 pM.
With `COCC(=O)N1CCC[C@@]1(C)C(=O)N1CCN(c2ccc(C(=O)Nc3cc(OC(F)(F)F)c(-c4ccc(-c5c[nH]c([C@@H]6CCCN6C(=O)[C@@H](NC(=O)OC)C(C)C)n5)cc4)cc3OC)cn2)[C@H](C)C1` [Example 27-31], the EC50 in assay [1] (setting [3]) and in assay [2] was less than 100 pM each time.
For the molecule `COC(=O)N[C@H](C(=O)N1CCC[C@H]1c1nc(-c2ccc(-c3ccc(NC(=O)c4ccc(N5CCN(C(=O)[C@H]6CC6(C)C)C[C@@H]5C)nc4)cc3)cc2)c[nH]1)C(C)C` [Example 13, [(S)-1-((S)-2-{4-[4′-({6-[(S)-4-((S)-2,2-Dimethyl-cyclopropane-carbonyl)-2-methyl-piperazin-1-yl]-pyridine-3-carbonyl}-amino)-biphenyl-4-yl]-1H-imidazol-2-yl}-pyrrolidine-1-carbonyl)-2-methyl-propyl]-carbamic acid methyl ester], the EC50 in assay [1] (setting [3]) and in assay [2] was less than 100 pM in each case.
For `COC(=O)N[C@H](C(=O)N1CCC[C@H]1c1nc(-c2ccc(-c3ccc(NC(=O)c4ccc(N5CCN(S(C)(=O)=O)CC5)cc4)cc3)cc2)c[nH]1)C(C)C` [Example 4, {(S)-1-[(S)-2-(4-{4′-[4-(4-Methanesulfonyl-piperazin-1-yl)-benzoylamino]-biphenyl-4-yl}-1H-imidazol-2-yl)-pyrrolidine-1-carbonyl]-2-methyl-propyl}-carbamic acid methyl ester], the EC50 in assay [1] (setting [4]) is 10000 to 100000 pM; in assay [2], less than 100 pM.
Regarding `CNC(=O)N1CCN(c2ccc(C(=O)Nc3cc(OC(F)(F)F)c(-c4ccc(-c5c[nH]c([C@@H]6CCCN6C(=O)[C@@H](NC(=O)OC)C(C)C)n5)cc4)cc3F)cn2)[C@H](C)C1` [Example 53, ((S)-1-{(S)-2-[4-(5′-Fluoro-4′-{[6-OR)-2-methyl-4-methylcarbamoyl-piperazin-1-yl)-pyridine-3-carbonyl]-amino}-2′-trifluoromethoxy-biphenyl-4-yl)-1H-imidazol-2-yl]-pyrrolidine-1-carbonyl}-2-methyl-propyl)-carbamic acid methyl ester], the EC50 in assay [1] (setting [3]) and in assay [2] was less than 100 pM throughout.
Turning to `COC(=O)N[C@H](C(=O)N1CCC[C@H]1c1nc(-c2ccc(-c3ccc(NC(=O)c4ccc(N5C[C@H](C)N(C(=O)[C@H]6CC6(C)C)C[C@H]5C)nc4)cc3C)c(C)c2)c[nH]1)C(C)C` [Example 39, [(S)-1-((S)-2-{4-[4′-({6-[(2R,5S)-4-((S)-2,2-Dimethyl-cyclopropanecarbonyl)-2,5-dimethyl-piperazin-1-yl]-pyridine-3-carbonyl}-amino)-2,2′-dimethyl-biphenyl-4-yl]-1H-imidazol-2-yl}-pyrrolidine-1-carbonyl)-2-methyl-propyl]-carbamic acid methyl ester], the EC50 in assay [1] (setting [3]) and in assay [2] was less than 100 pM in each case.
For `COC(=O)N[C@H](C(=O)N1CCC[C@H]1c1nc(-c2ccc(-c3ccc(NC(=O)c4ccc(N5CCN(C(=O)C6CC6)C[C@H]5C)nc4)cc3C)cc2)c[nH]1)C(C)C` [Example 17], the EC50 is 100 to 1000 pM in assay [1] (setting [3]) and less than 100 pM in assay [2].
`COC(=O)N[C@H](C(=O)N1CCC[C@H]1c1nc(-c2ccc(-c3ccc(NC(=O)c4ccc(N5CCN(C(=O)C6CC6)C[C@H]5C)nc4)cc3OC(F)(F)F)cc2)c[nH]1)C(C)C` [Example 28]: the results for the EC50 in assay [1] (setting [3]) and in assay [2] were 100 to 1000 pM and less than 100 pM, respectively.
For `CNC(=O)N1C[C@@H](C)N(c2ccc(C(=O)Nc3cc(OC(F)(F)F)c(-c4ccc(-c5c[nH]c([C@@H]6CCCN6C(=O)[C@@H](NC(=O)OC)C(C)C)n5)cc4)cc3Cl)cn2)C[C@@H]1C` [Example 28-36] the same measures were less than 100 pM and less than 100 pM.
In the case of `COC(=O)N[C@H](C(=O)N1CCC[C@H]1c1nc(-c2ccc(-c3cc(F)c(NC(=O)c4ccc(N5CCN(C(=O)[C@]6(C)CCCN6C(=O)[C@@H](N)C(C)C)C[C@H]5C)nc4)cc3OC(F)(F)F)cc2)c[nH]1)C(C)C` [Example 27-44], the EC50 in assay [1] (setting [3]) and in assay [2] was less than 100 pM each time.
`COC(=O)N[C@H](C(=O)N1CCC[C@H]1c1nc(-c2ccc(-c3cc(Cl)c(NC(=O)c4ccc(N5C[C@H](C)N(C(=O)c6c[nH]cn6)C[C@H]5C)nc4)cc3OC(F)(F)F)cc2)c[nH]1)C(C)C` [Example 28-39]: the EC50 in assay [1] (setting [3]) and in assay [2] was less than 100 pM each time.
As to `CNC(=O)N1CCC[C@@]1(C)C(=O)N1CCN(c2ccc(C(=O)Nc3cc(OC(F)(F)F)c(-c4ccc(-c5c[nH]c([C@@H]6CCCN6C(=O)[C@@H](NC(=O)OC)C(C)C)n5)cc4)cc3F)cn2)[C@H](C)C1` [Example 27-47], the EC50 in assay [1] (setting [3]) and in assay [2] was less than 100 pM in each case.
Turning to `COC(=O)N[C@H](C(=O)N1CCC[C@H]1c1nc(-c2ccc(-c3cc(F)c(NC(=O)c4ccc(N5C[C@H](C)N(C(=O)[C@H]6CC6(C)C)C[C@H]5C)nc4)cc3OC(F)(F)F)cc2)c[nH]1)C(C)C` [Example 57], the EC50 in assay [1] (setting [3]) and in assay [2] was less than 100 pM in each case.
As for `COC(=O)N[C@H](C(=O)N1CCC[C@H]1c1nc(-c2ccc(-c3cc(F)c(NC(=O)c4ccc(N5CCN(C(=O)[C@]6(C)CCCN6C(=O)[C@@H](NC(=O)OC)C(C)C)C[C@H]5C)nc4)cc3C(F)(F)F)cc2)c[nH]1)C(C)C` [Example 52], the EC50 in assay [1] (setting [3]) and in assay [2] was less than 100 pM in each case.
On to `COC(=O)N[C@H](C(=O)N1CCC[C@H]1c1nc(-c2ccc(-c3ccc(NC(=O)c4ccc(N5CCN(C(=O)OC(C)(C)C)CC5)cc4)cc3)cc2)c[nH]1)C(C)C` [Example 3, 4-[4-(4′-{2-[(S)-1-((S)-2-Methoxycarbonylamino-3-methyl-butyryl)-pyrrolidin-2-yl]-1H-imidazol-4-yl}-biphenyl-4-ylcarbamoyl)-phenyl]-piperazine-1-carboxylic acid tert-butyl ester], for which the EC50 was 1000 to 10000 pM in assay [1] (setting [4]) and less than 100 pM in assay [2].

Source of the values: patent US8921372B2, “Inhibitors of hepatitis C virus” (Theravance Biopharma R&D IP, LLC, priority 2010, dated 2014).
